Results from US8785463B2, “GPR 119 agonists” (Cadila Healthcare Limited, priority 2010, dated 2014).

Tests used:
C57/BL6 mice = assay: Oral Glucose Tolerance Tests (OGTT) in C57/BL6 mice; format: in vivo; conditions: single oral dose, glucose load 3 gm/kg, serum glucose AUC, head 50 mg/kg
Protocol: In Vivo Efficacy Studies: Oral Glucose Tolerance Tests (OGTT) in C57/13L6 mice:
C57/BL6 mice of 6-8 week age are used for this experiment. Animals are grouped based on non-fasting serum glucose levels and kept on fasting for overnight (day before OGTT). On the experiment day, […], 30 min post dosing animals are bled for basal glucose level estimation and at the same time glucose load (3 gm/kg) will be administered per orally. Blood is collected at time points corresponding to 20, 40, 60 and 120 min after glucose load administration. Serum is separated for determination of glucose levels and change in area under curve for glucose is calculated and provided in Table 3 as % to reduction in AUC.

db/db mice = assay: Oral Glucose Tolerance Tests (OGTT) in db/db mice; format: in vivo; conditions: single oral dose 50 mg/kg, glucose load 2 g/kg, AUC glucose excursion vs vehicle control
Protocol: Oral Glucose Tolerance Tests (OGTT) in db/db mice:
db/db mice of 5-7 week age are used for this experiment. Animals were kept on fasting and are grouped based on fasting serum glucose levels and after grouping OGTT was performed. Each animal receive a single dose of vehicle/test compounds (50 mg/kg) administered orally, 30 min post dosing animals are bled for basal glucose level estimation and at the same time glucose load (2 g/kg) will be administered per orally. Blood is collected at time points corresponding to 30, 60 and 120 min after glucose load administration. Serum is separated for determination of glucose levels and change in area under curve for glucose and glucose excursion is calculated from Vehicle control with glucose load Vs water control group without glucose load and provided in Table 4 as % reduction in AUC glucose excursion Vs Vehicle control is calculated.

human GPR 119 receptor = molecular target: T1, human GPR 119 receptor (Homo sapiens, UniProt Q8TDV5); assay: cAMP assay in stable cell line expressing recombinant human GPR 119 receptor; format: cell-based; conditions: for Fold increase in cyclic AMP with respective to DMSO: DMSO = 1
T1 construct: expressed in transfected cells
T1 sequence (Q8TDV5 1-335): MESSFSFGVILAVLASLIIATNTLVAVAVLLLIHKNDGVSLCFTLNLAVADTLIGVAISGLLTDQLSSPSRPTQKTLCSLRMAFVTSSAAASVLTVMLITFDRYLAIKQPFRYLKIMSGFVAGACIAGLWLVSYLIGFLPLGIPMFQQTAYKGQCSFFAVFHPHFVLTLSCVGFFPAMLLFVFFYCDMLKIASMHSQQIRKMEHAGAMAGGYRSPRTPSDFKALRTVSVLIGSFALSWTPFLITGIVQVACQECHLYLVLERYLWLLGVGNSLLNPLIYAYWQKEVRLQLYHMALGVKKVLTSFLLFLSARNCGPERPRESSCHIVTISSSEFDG
Description: A stable cell line expressing recombinant human GPR 119 receptor was established and used to investigate the efficacy of the compounds of the invention based on the intracellular levels of cyclic AMP (cAMP) using commercially available cAMP kits.

With `Cc1c(Oc2ccc(/C=C3\SC(=O)NC3=O)cc2)ncnc1OC1CCN(C(=O)OC(C)(C)C)CC1` [Example 1, (Z)-tert-Butyl 4-((6-(4-((2,4-dioxothiazolidin-5-ylidene)methy 1)phenoxy)-5-methylpyrimidin-4-yl)oxy)piperidine-1-carboxylate] the “% reduction in AUC at 50 mg/kg” value (C57/BL6 mice) was 35.0%, the “% reduction in AUC at 50 mg/kg” value (db/db mice) was 56.2% and the EC50 (human GPR 119 receptor) was 0.088 µM. For the same molecule, the “Fold increase in cyclic AMP with respective to DMSO” value (from here on “Fold increase in cyclic AMP”) (human GPR 119 receptor; 10 nM compound) was 0.90 fold, the “Fold increase in cyclic AMP” value (human GPR 119 receptor; 100 nM compound) was 2.27 fold and the “Fold increase in cyclic AMP” value (human GPR 119 receptor; 1 uM compound) was 3.96 fold.
`CCOC(=O)CN1C(=O)S/C(=C\c2ccc(Oc3ncnc(OC4CCN(C(=O)OC(C)(C)C)CC4)c3C)cc2)C1=O` [Example 2, (Z)-tert-Butyl 4-((6-(4-((3-(2-ethoxy-2-oxoethyl)-2,4-dioxothiazolidin-5-ylidene)methyl)phenoxy)-5-methylpyrimidin-4-yl)oxy)piperidine-1-carboxylate] was tested, and the “% reduction in AUC at 50 mg/kg” value (C57/BL6 mice) was 13.0%, the “% reduction in AUC at 50 mg/kg” value (db/db mice) was 47.3% and the “Fold increase in cyclic AMP” value (human GPR 119 receptor; 10 nM compound) was 5.90 fold. The “Fold increase in cyclic AMP” value (human GPR 119 receptor; 100 nM compound) was 8.00 fold and the “Fold increase in cyclic AMP” value (human GPR 119 receptor; 1 uM compound) was 12.56 fold.
In the case of `Cc1c(Oc2ccc(/C=C3\SC(=O)NC3=O)cc2)ncnc1OC1CCN(c2nc(C(C)C)no2)CC1` [Example 7, (Z)-5-(4-((6-((1-(3-iso-Propyl-1,2,4-oxadiazol-5-yl)piperidin-4-yl)oxy)-5-methylpyrimidin-4-yl)oxy)benzylidene)thiazolidine-2,4-dione], the “% reduction in AUC at 50 mg/kg” value (C57/BL6 mice) is reported as 29.0%, the “% reduction in AUC at 50 mg/kg” value (db/db mice) is reported as 22.4% and the EC50 (human GPR 119 receptor) is reported as 0.124 µM. The “Fold increase in cyclic AMP” value (human GPR 119 receptor; 10 nM compound) was 0.79 fold, the “Fold increase in cyclic AMP” value (human GPR 119 receptor; 100 nM compound) was 1.32 fold and the “Fold increase in cyclic AMP” value (human GPR 119 receptor; 1 uM compound) was 2.24 fold.
`Cc1c(Oc2cccc(/C=C3\SC(=O)NC3=O)c2)ncnc1OC1CCN(C(=O)OC(C)(C)C)CC1` [Example 9, (Z)-tert-Butyl 4-((6-(3-((2,4-dioxothiazolidin-5-ylidene)methyl)phenoxy)-5-methylpyrimidin-4-yl)oxy)piperidine-1-carboxylate] was tested, and the “% reduction in AUC at 50 mg/kg” value (C57/BL6 mice) was 32.4%, the “% reduction in AUC at 50 mg/kg” value (db/db mice) was 69.1% and the EC50 (human GPR 119 receptor) was 0.043 µM. The “Fold increase in cyclic AMP” value (human GPR 119 receptor; 10 nM compound) was 2.54 fold, the “Fold increase in cyclic AMP” value (human GPR 119 receptor; 100 nM compound) was 4.86 fold and the “Fold increase in cyclic AMP” value (human GPR 119 receptor; 1 uM compound) was 6.57 fold.
For `CC(C)(C)OC(=O)N1CCC(Oc2cc(Oc3ccc(/C=C4\SC(=O)NC4=O)cc3)ncn2)CC1` [Example 12, (Z)-tert-Butyl 4-((6-(4-((2,4-dioxothiazolidin-5-ylidene)methyl)phenoxy)pyrimidin-4-yl)oxy)piperidine-1-carboxylate], the “% reduction in AUC at 50 mg/kg” value (C57/BL6 mice) was 23.4%, the “% reduction in AUC at 50 mg/kg” value (db/db mice) was 66.7% and the EC50 (human GPR 119 receptor) was 0.13 µM. The “Fold increase in cyclic AMP” value (human GPR 119 receptor; 10 nM compound) was 2.22 fold, the “Fold increase in cyclic AMP” value (human GPR 119 receptor; 100 nM compound) was 4.47 fold and the “Fold increase in cyclic AMP” value (human GPR 119 receptor; 1 uM compound) was 7.00 fold.
`CC(=O)CN1C(=O)S/C(=C\c2ccc(Oc3cc(OC4CCN(C(=O)OC(C)(C)C)CC4)ncn3)cc2)C1=O` [Example 46, (Z)-tert-Butyl 4-((6-(4-((2,4-dioxo-3-(2-oxopropyl)thiazolidin-5-ylidene)methyl)phenoxy)pyrimidin-4-yl)oxy)piperidine-1-carboxylate] was tested, and the “Fold increase in cyclic AMP” value (human GPR 119 receptor; 10 nM compound) was 1.58 fold, the “Fold increase in cyclic AMP” value (human GPR 119 receptor; 100 nM compound) was 1.89 fold and the “Fold increase in cyclic AMP” value (human GPR 119 receptor; 1 uM compound) was 5.45 fold.
With `Cc1c(Oc2cccc(/C=C3\SC(=O)NC3=O)c2)ncnc1OC1CCN(C(=O)OCc2ccccc2)CC1` [Example 50, (Z)-Benzyl 4-((6-(3-((2,4-dioxothiazolidin-5-ylidene)methyl)phenoxy)-5-methylpyrimidin-4-yl)oxy)piperidine-1-carboxylate] the “Fold increase in cyclic AMP” value (human GPR 119 receptor; 10 nM compound) was 1.73 fold, the “Fold increase in cyclic AMP” value (human GPR 119 receptor; 100 nM compound) was 4.66 fold and the “Fold increase in cyclic AMP” value (human GPR 119 receptor; 1 uM compound) was 5.74 fold.
With `CCOC(=O)N1CCC(Oc2cc(Oc3cccc(/C=C4\SC(=O)NC4=O)c3)ncn2)CC1` [Example 51, (Z)-Ethyl 4-((6-(3-((2,4-dioxothiazolidin-5-ylidene)methyl)phenoxy)pyrimidin-4-yl)oxy)piperidine-1-carboxylate] the “Fold increase in cyclic AMP” value (human GPR 119 receptor; 10 nM compound) was 0.79 fold, the “Fold increase in cyclic AMP” value (human GPR 119 receptor; 100 nM compound) was 1.25 fold and the “Fold increase in cyclic AMP” value (human GPR 119 receptor; 1 uM compound) was 2.81 fold.
In the case of `CCOC(=O)N1CCC(Oc2cc(Oc3ccc(/C=C4\SC(=O)NC4=O)cc3)ncn2)CC1` [Example 52, (Z)-Ethyl 4-((6-(4-((2,4-dioxothiazolidin-5-ylidene)methyl)phenoxy)pyrimidin-4-yl)oxy)piperidine-1-carboxylate], the “Fold increase in cyclic AMP” value (human GPR 119 receptor; 10 nM compound) is reported as 1.15 fold, the “Fold increase in cyclic AMP” value (human GPR 119 receptor; 100 nM compound) is reported as 1.94 fold and the “Fold increase in cyclic AMP” value (human GPR 119 receptor; 1 uM compound) is reported as 3.36 fold.
For `CC(C)COC(=O)N1CCC(Oc2cc(Oc3ccc(/C=C4\SC(=O)NC4=O)cc3)ncn2)CC1` [Example 53, (Z)-Isobutyl 4-((6-(4-((2,4-dioxothiazolidin-5-ylidene)methyl)phenoxy)pyrimidin-4-yl)oxy)piperidine-1-carboxylate], the “Fold increase in cyclic AMP” value (human GPR 119 receptor; 10 nM compound) was 0.99 fold, the “Fold increase in cyclic AMP” value (human GPR 119 receptor; 100 nM compound) was 1.79 fold and the “Fold increase in cyclic AMP” value (human GPR 119 receptor; 1 uM compound) was 3.59 fold.
In the case of `CC(C)COC(=O)N1CCC(Oc2cc(Oc3cccc(/C=C4\SC(=O)NC4=O)c3)ncn2)CC1` [Example 54, (Z)-Isobutyl 4-((6-(3-((2,4-dioxothiazolidin-5-ylidene)methyl)phenoxy)pyrimidin-4-yl)oxy)piperidine-1-carboxylate], the “Fold increase in cyclic AMP” value (human GPR 119 receptor; 10 nM compound) is reported as 1.31 fold, the “Fold increase in cyclic AMP” value (human GPR 119 receptor; 100 nM compound) is reported as 2.28 fold and the “Fold increase in cyclic AMP” value (human GPR 119 receptor; 1 uM compound) is reported as 4.11 fold.
With `CCc1cnc(N2CCC(Oc3cc(Oc4cccc(/C=C5\SC(=O)NC5=O)c4)ncn3)CC2)nc1` [Example 55] the “Fold increase in cyclic AMP” value (human GPR 119 receptor; 10 nM compound) was 1.18 fold, the “Fold increase in cyclic AMP” value (human GPR 119 receptor; 100 nM compound) was 2.86 fold and the “Fold increase in cyclic AMP” value (human GPR 119 receptor; 1 uM compound) was 4.77 fold.
With `CC(C)c1noc(N2CCC(Oc3cc(Oc4cccc(/C=C5\SC(=O)NC5=O)c4)ncn3)CC2)n1` [Example 66, (Z)-5-(3-((6-((1-(3-isopropyl-1,2,4-oxadiazol-5-yl)piperidin-4-yl)oxy)pyrimidin-4-yl)oxy)benzylidene)thiazolidine-2,4-dione] the “% reduction in AUC at 50 mg/kg” value (C57/BL6 mice) was 41.1% and the EC50 (human GPR 119 receptor) was 0.071 µM.
